Assay results from PubChem BioAssay (NCI).
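Values below derive from 48-hour exposures of cells grown in 96-well plates, with endpoints linearly interpolated between the two concentrations bracketing the appropriate inhibition level. The concentration for 50% growth inhibition is given as GI50. At the TGI there is no net growth.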

Experiments:
Test in all cases: DTP human tumour cell line panel, 48 h
TK-10 renal = tested on: TK-10 renal
CAKI-1 renal = tested on: CAKI-1 renal
SW-620 colon = tested on: SW-620 colon
BT-549 breast = tested on: BT-549 breast
HCC-2998 colon = tested on: HCC-2998 colon
NCI-H522 lung = tested on: NCI-H522 lung
SF-295 CNS = tested on: SF-295 CNS
HOP-92 NSCLC = tested on: HOP-92 NSCLC
COLO 205 colon = tested on: COLO 205 colon
A549 NSCLC = tested on: A549 NSCLC

Row | Compound | GI50 (TK-10 renal) [µM] | TGI (TK-10 renal) [µM] | GI50 (CAKI-1 renal) [µM] | TGI (CAKI-1 renal) [µM] | GI50 (SW-620 colon) [µM] | TGI (SW-620 colon) [µM] | GI50 (BT-549 breast) [µM] | TGI (BT-549 breast) [µM] | GI50 (HCC-2998 colon) [µM] | TGI (HCC-2998 colon) [µM] | GI50 (NCI-H522 lung) [µM] | TGI (NCI-H522 lung) [µM] | GI50 (SF-295 CNS) [µM] | TGI (SF-295 CNS) [µM] | GI50 (HOP-92 NSCLC) [µM] | TGI (HOP-92 NSCLC) [µM] | GI50 (COLO 205 colon) [µM] | TGI (COLO 205 colon) [µM] | GI50 (A549 NSCLC) [µM] | TGI (A549 NSCLC) [µM]
1 | C=CC1CC12C(=O)C1OC2(C)C2C(=O)c3c(O)ccc(O)c3C(=O)C12 (stereo not given) | 2.96 | 9.38 | 0.402 | 1.65 | 2.32 | 5.88 | 10.2 | 26.3 | 13.8 | 30.1 | 6.23 | 16.8 | 1.39 | 5.55 | 2.69 | 6.59 | 1.52 | 17 | 8.5 | 27.2
2 | O=C(CCl)N1c2ccccc2Sc2ccc3ccccc3c21 | 1.54 | 2.92 | 0.498 | 0.95 | 1.27 | 2.89 | 1.56 | 3.52 | 1.8 | 3.25 | 0.509 | 1.1 | 1.68 | 3.15 | 1.16 | 2.51 | 1.69 | 3.14 | 1.98 | 4.75
3 | Cc1ccc(SC2=CC(=O)c3nc4ccccc4c4ccnc2c34)cc1 | 53.6 | > 100 | 25.5 | 63.8 | 23.1 | 47.9 | > 62.9 | > 100 | > 67.8 | > 100 | 16.3 | 38.4 | > 100 | > 100 | 20 | 38.2 | 39.4 | > 85.6 | > 79.8 | > 100
4 | COc1ccc(-n2c3c(c4c(CN5CCOCC5)c(O)ccc42)CCc2ccccc2C3=O)cc1 | > 100 | > 100 | 37.8 | > 100 | 82.2 | > 100 | 24.2 | > 100 | > 100 | > 100 | 7.28 | 63.2 | > 100 | > 100 | 59.5 | > 100 | > 100 | > 100 | > 100 | > 100
5 | C=CC(=O)N[C@H]1CCOC[C@H]1Nc1ncc2cc(-c3c(Cl)c(OC)cc(OC)c3Cl)ccc2n1 | 31.8 | > 100 | 12.5 | > 100 | 27.5 | > 100 | 2.86 | 15.8 | 32.7 | > 100 | 30.9 | > 100 | 16 | > 100 | 5.38 | 51.3 | 13.8 | 29.5 | 30.5 | > 100
6 | C=CCC1(O)c2cccc(NCCO)c2C(=O)c2c(NCCO)cccc21 | > 100 | > 100 | > 100 | > 100 | > 100 | > 100 | > 100 | > 100 | > 100 | > 100 | > 100 | > 100 | > 100 | > 100 | 80.7 | > 100 | > 100 | > 100 | > 100 | > 100
7 | COc1cc(/C=C2\CCC(CN(C)C)C2=O)ccc1OC(=O)c1ccccc1 (stereo not given) | – | 23.5 | – | 32.5 | – | 17.8 | – | 30 | – | 30.1 | – | 10.4 | – | 32 | – | 32.6 | – | 24.8 | – | 51.5
8 | COC(=O)[C@]12CC[C@@H](C)[C@H](C)[C@@H]1C1=CC[C@@H]3[C@@]4(C)C=C(O)C(=O)[C@@]5(C)COC(=C54)C[C@@]3(C)[C@]1(C)CC2 | 12.5 | 29.8 | 9.36 | 26.7 | 11.3 | 26.3 | 7.96 | 25.8 | 11.5 | 26.7 | 2.57 | 9.17 | 13 | 28.7 | 14 | 28.9 | 13.5 | 29.6 | 8.36 | 26
9 | CSc1ccc2c3c(n(C[C@H](O)CO)c(=O)c2c1)-c1ccccc1C3=O | 4.76 | 37.5 | 1.11 | 5.74 | 0.978 | 43.6 | 2.77 | 22.8 | 3.32 | 18 | 2 | 25.5 | 2.82 | 12 | 12.9 | 93.9 | 2.94 | 21.1 | 1.04 | 3.47
10 | Cn1cc(-c2cnc3ccc4ccc(CS(=O)(=O)NCc5ccccn5)cc4c(=O)c3c2)cn1 | 21.6 | > 83.1 | 14.2 | > 100 | 15.6 | > 100 | 12.4 | 42.6 | 13.4 | 27.9 | 22 | > 95.9 | 3.61 | > 100 | 6.19 | > 77.3 | 18.6 | > 55.8 | 25.2 | > 100
